Results reported in the NIST ThermoML archive (doi:10.1016/j.jct.2012.02.005).
Numbers after ± are expanded uncertainties.

Legend:
[1] = Crystal; DTA
[2] = Molar enthalpy of transition or fusion; conditions: Crystal; DSC

Triple point temperature [1]: 316.96 ± 0.39 K | Molar enthalpy of transition or fusion [2]: 16.3 ± 0.39 kJ/mol
Structure (SMILES): c1ccc2nsnc2c1 [2,1,3-benzothiadiazole]
